This is an account of results in patent US10167311B2, “Boronic acid esters and pharmaceutical formulations thereof” (OHIO STATE INNOVATION FOUNDATION, priority 2014, dated 2019).

The nature of data set [1]: Encapsulation (drug entrapment / loading) efficiency of liposomes, Sepharose CL-4B fractions, UV-vis OD 270 nm. It counts as physicochemical. The conditions noted are these: liposomal formulation; drug in liposome fractions / total drug fractions. Here is the method: The liposome particle size distribution is determined through dynamic light scattering on a NICOMP Submicron Particle Sizer Model 370. The encapsulation efficiency was examined by a UV-visible spectrophotometer as the OD at 270 nm after 1:9 methanol extraction of fractions from the Sepharose CL-4B column (FIG. 1). A reference measurement was also taken of the OD at 450 nm without methanol extraction (FIG. 1). Then, the ratio of total amount of drug content in the liposome fractions to total drug fractions was calculated. In this example, a drug entrapment of 41% was obtained. The liposome particle size distribution was determined through dynamic light scattering on a NICOMP Submicron Particle Sizer Model 370. The encapsulation efficiency was examined by a UV-visible spectrophotometer as the OD at 270 nm after 1:9 methanol dissolution of fractions collected from the Sepharose column. A reference measurement was also taken of the OD at 450 nm without methanol dissolution. Then, the ratio of total amount of drug content in the liposome fractions to total drug fractions was calculated. […] The liposome particle size distribution was determined through dynamic light scattering on a NICOMP Submicron Particle Sizer Model 370. […] Then, the ratio of total amount of drug content in the liposome fractions to total drug fractions was calculated. […] Each fraction was analyzed by UV-vis spectrophotometry. […]

In data set [2] the test system is MV4-11 AML cells. As to the kind of experiment: Survival of MV4-11 engrafted NSG mice. It counts as in vivo. The conditions noted are these: liposomal formulation, 1 mg/kg twice a week. The method, then: The therapeutic activity of BTZ-MEGA-CHOL was also investigated using animal studies. NSG mice were injected with 5×10^5 MV4-11 AML cells. The mice were divided into two groups of 10 each (Trial I), and were treated with empty liposomes or the liposomal formulation of BTZ-MEGA-CHOL at 1 mg/kg, twice a week, by tail vein injection. The study was repeated once with 5 mice in each group (Trial II). Three mice from each group were sacrificed after 4 weeks of treatment in Trial I for further analysis.
For Trial I, the p value was 0.0007 (FIG. 9). For Trial II the p value was 0.0019 (FIG. 10). When the data set was viewed as a combination, the p value was <0.0001 and median survival of the mice was 28 days for the empty liposome treated (control) group and 39 days for the BTZ-MEGA-CHOL treated group (FIG. 11).

Data set [3] can be described thus: Pharmacokinetics in plasma after i.v. administration (boron by ICP-OES). It counts as in vivo. The note with it: ICR mice, i.v. 1.0 mg/kg, two-compartment model, mean ± SD (n = 3). The method, then: The Pharmacokinetics of L-BTZ was studied in ICR mice (Charles River Lab, Wilmington, Mass.). The PK profile of free BTZ was also determined. Mice were given intravenous injections of free BTZ or L-BTZ at 1.0 mg/kg body weight via tail vein. At selected time intervals, a minimum of 100 μL […] was collected from each mouse using heparin-containing tubes. Plasma was then isolated by centrifugation at 3000× g for 5 min. The drug concentration in plasma was determined by measuring Boron concentration through an inductively coupled plasma-optical emission spectrometer (ICP-OES). The Boron extraction and sample preparation has been described previously. The pharmacokinetic parameters of free BTZ and L-BTZ were calculated using WinNonlin software and a two-compartment model and are shown in Table 1.

The conditions of data set [4]: cited from earlier work.

Molecules are shown by their SMILES. Like-named read-outs stand apart in the source and are kept apart here.

As to `CC(C)CCC[C@@H](C)C1CCC2C3CC=C4C[C@@H](OC(=O)N(C)CC(O)[C@H]5OB([C@H](CC(C)C)NC(=O)[C@H](Cc6ccccc6)NC(=O)c6cnccn6)O[C@@H]5C(O)CO)CC[C@]4(C)C3CC[C@@]21C` (stereo partly drawn) [BTZ-MEGA-CHOL], in data set [1], the “drug entrapment (encapsulation efficiency)” value is listed as 80.11%. The median survival in data set [2] (tail vein, Trial I and II combined, p <0.0001 vs empty liposomes (28 days)) came to 39 days. The survival of mice entry in data set [2] (Trial I p 0.0007, Trial II p 0.0019) is “significant increase in survival”.

Broadly, the AUC is concentration integrated over time. The low end stands for low exposure, the high end for high exposure. For orientation: clearance means the rate of elimination divided by the concentration. In data set [3], `CC(C)C[C@H](NC(=O)[C@H](Cc1ccccc1)NC(=O)c1cnccn1)B(O)O` [Free BTZ, Bortezomib] displayed a T1/2α of 6 ± 1.2 min and a T1/2β of 18.26 ± 13.33 h. For the same compound, in data set [3] (mouse, iv), the AUC was found to be 2.87 ± 1.34 µg·h/mL and the clearance was 0.348 L/h/kg. The maximum tolerated dose in data set [4] (intravenous bolus on days 1, 4, 8, and 11 of a 3-week cycle) is reported as 1.56 mg/m^2. Further, in data set [4] (patients with solid tumors, intravenously once or twice weekly), the maximum tolerated dose is 1.3 mg/m^2.
